Data as given in ChEMBL document CHEMBL3774345, “Synthesis of new diarylamides with pyrimidinyl pyridine scaffold and evaluation of their anti-proliferative effect on cancer cell lines” (Bioorg Med Chem Lett, 2016).

Tests used:
Format in all cases: functional
[1] = Cytotoxicity against human OVCAR8 cells assessed as growth inhibition at 10 uM after 24 hrs by SRB assay; conditions: OVCAR-8, 24 h, read-out: GI
[2] = Cytotoxicity against human SF539 cells assessed as cell growth at 10^-8 M after 24 hrs by SRB assay; conditions: SF-539, 24 h, read-out: Activity
[3] = Cytotoxicity against human HCT15 cells assessed as cell growth at 10^-7 M after 24 hrs by SRB assay; conditions: HCT-15, 24 h, read-out: Activity
[4] = Cytotoxicity against human OVCAR3 cells assessed as cell growth at 10^-6 M after 24 hrs by SRB assay; conditions: OVCAR-3, 24 h, read-out: Activity
MCF7 = assay: Cytotoxicity against human MCF7 cells assessed as cell growth at 10^-5 M after 24 hrs by SRB assay; conditions: MCF7, 24 h, read-out: Activity
A549 = assay: Cytotoxicity against human A549 cells assessed as cell growth at 10^-4 M after 24 hrs by SRB assay; conditions: A549, 24 h, read-out: Activity
[5] = Cytotoxicity against human DU145 cells assessed as cell growth at 10^-4 M after 24 hrs by SRB assay; conditions: DU-145, 24 h, read-out: Activity
[6] = Cytotoxicity against human UACC257 cells assessed as cell growth at 10^-5 M after 24 hrs by SRB assay; conditions: UACC-257, 24 h, read-out: Activity
[7] = Cytotoxicity against human HL-60(TB) cells after 24 hrs by SRB assay; conditions: HL-60, 24 h
NCI-H23 [8] = assay: Cytotoxicity against human NCI-H23 cells assessed as cell growth at 10^-6 M after 24 hrs by SRB assay; conditions: NCI-H23, 24 h, read-out: Activity
[9] = Cytotoxicity against human NCI-ADR-RES cells assessed as cell growth at 10^-8 M after 24 hrs by SRB assay; conditions: read-out: Activity
U-251 [10] = assay: Cytotoxicity against human U251 cells assessed as cell growth at 10^-8 M after 24 hrs by SRB assay; conditions: U-251, 24 h, read-out: Activity
[11] = Cytotoxicity against human SNB75 cells assessed as cell growth at 10^-7 M after 24 hrs by SRB assay; conditions: SNB-75, 24 h, read-out: Activity
[12] = Cytotoxicity against human SF268 cells assessed as cell growth at 10^-4 M after 24 hrs by SRB assay; conditions: SF-268, 24 h, read-out: Activity
SK-MEL-5 = assay: Cytotoxicity against human SK-MEL-5 cells assessed as cell growth at 10^-4 M after 24 hrs by SRB assay; conditions: SK-MEL-5, 24 h, read-out: Activity
U-251 [13] = assay: Cytotoxicity against human U251 cells assessed as cell growth at 10^-6 M after 24 hrs by SRB assay; conditions: U-251, 24 h, read-out: Activity
[14] = Cytotoxicity against human HOP92 cells assessed as cell growth at 10^-7 M after 24 hrs by SRB assay; conditions: HOP-92, 24 h, read-out: Activity
NCI-H23 [15] = assay: Cytotoxicity against human NCI-H23 cells assessed as cell growth at 10^-4 M after 24 hrs by SRB assay; conditions: NCI-H23, 24 h, read-out: Activity
MDA-MB-231 = assay: Cytotoxicity against human MDA-MB-231 cells assessed as cell growth at 10^-5 M after 24 hrs by SRB assay; conditions: MDA-MB-231, 24 h, read-out: Activity
U-251 [16] = assay: Cytotoxicity against human U251 cells assessed as cell growth at 10^-5 M after 24 hrs by SRB assay; conditions: U-251, 24 h, read-out: Activity
[17] = Cytotoxicity against human SF295 cells assessed as cell growth at 10^-7 M after 24 hrs by SRB assay; conditions: SF-295, 24 h, read-out: Activity
[18] = Cytotoxicity against human UO31 cells assessed as cell growth at 10^-8 M after 24 hrs by SRB assay; conditions: UO-31, 24 h, read-out: Activity
[19] = Cytotoxicity against human MOLT4 cells assessed as cell growth at 10^-6 M after 24 hrs by SRB assay; conditions: MOLT-4, 24 h, read-out: Activity
A498 = assay: Cytotoxicity against human A498 cells assessed as cell growth at 10^-4 M after 24 hrs by SRB assay; conditions: A498, 24 h, read-out: Activity
[20] = Cytotoxicity against human IGROV1 cells after 24 hrs by SRB assay; conditions: IGROV-1, 24 h
NCI-H522 = assay: Cytotoxicity against human NCI-H522 cells assessed as cell growth at 10^-8 M after 24 hrs by SRB assay; conditions: NCI-H522, 24 h, read-out: Activity
[21] = Cytotoxicity against human IGROV1 cells assessed as cell growth at 10^-8 M after 24 hrs by SRB assay; conditions: IGROV-1, 24 h, read-out: Activity
T47D = assay: Cytotoxicity against human T47D cells assessed as cell growth at 10^-8 M after 24 hrs by SRB assay; conditions: read-out: Activity
[22] = Cytotoxicity against human OVCAR8 cells assessed as cell growth at 10^-8 M after 24 hrs by SRB assay; conditions: OVCAR-8, 24 h, read-out: Activity
[23] = Cytotoxicity against human SNB75 cells assessed as cell growth at 10^-8 M after 24 hrs by SRB assay; conditions: SNB-75, 24 h, read-out: Activity
[24] = Cytotoxicity against human OVCAR4 cells assessed as cell growth at 10^-7 M after 24 hrs by SRB assay; conditions: OVCAR-4, 24 h, read-out: Activity
NCI-H226 = assay: Cytotoxicity against human NCI-H226 cells assessed as cell growth at 10^-6 M after 24 hrs by SRB assay; conditions: NCI-H226, 24 h, read-out: Activity
[25] = Cytotoxicity against human LOXIMVI cells assessed as cell growth at 10^-8 M after 24 hrs by SRB assay; conditions: LOX IMVI, read-out: Activity
MDA-MB-435 = assay: Cytotoxicity against human MDA-MB-435 cells assessed as cell growth at 10^-8 M after 24 hrs by SRB assay; conditions: MDA-MB-435, 24 h, read-out: Activity
SN12C = assay: Cytotoxicity against human SN12C cells assessed as cell growth at 10^-5 M after 24 hrs by SRB assay; conditions: read-out: Activity
SK-MEL-2 = assay: Cytotoxicity against human SK-MEL-2 cells assessed as cell growth at 10^-6 M after 24 hrs by SRB assay; conditions: SK-MEL-2, 24 h, read-out: Activity
[26] = Cytotoxicity against human DU145 cells assessed as cell growth at 10^-5 M after 24 hrs by SRB assay; conditions: DU-145, 24 h, read-out: Activity
[27] = Cytotoxicity against human NCI-ADR-RES cells assessed as cell growth at 10^-7 M after 24 hrs by SRB assay; conditions: read-out: Activity
[28] = read-out: LC50 (the source's name)
[29] = read-out: pLC50 (the source's name) (converted)

With `COCCCNc1nc(NC(=O)c2cc(OC)cc(OC)c2)cc(-c2cccnc2)n1` the inhibition of growth at 10 µM [1] was 20.7%.
Work on `O=C(Nc1cc(-c2cccnc2)nc(NCCCN2CCOCC2)n1)c1cc(Br)cc(C(F)(F)F)c1` yielded a growth at 0.01 µM [2] of 95%, a growth at 0.1 µM [3] of 92% and a growth at 1 µM [4] of 100%. For the same compound, the growth at 10 µM (MCF7) was -3%, the growth at 100 µM (A549) was -95% and the growth at 100 µM [5] was -100%. The growth at 10 µM [6] was -83%, the GI50 ([7]; read-out: GI50) was 2150 nM and the CC50 [7, 28] was 90.1 µM. The TGI ([7]; read-out: TGI) was 5.86 µM, the GI50 ([7]; read-out: pGI50 (converted)) was 2140 nM and the CC50 [7, 29] was 89.1 µM. It also gave a TGI ([7]; read-out: pTGI (converted)) of 5.89 µM, a growth at 1 µM (NCI-H23 [8]) of 89% and a growth at 0.01 µM [9] of 100%. It also gave a growth at 0.01 µM (U-251 [10]) of 97%, a growth at 0.1 µM [11] of 84% and a growth at 100 µM [12] of -88%. For the same compound, the growth at 100 µM (SK-MEL-5) was -100%, the growth at 1 µM (U-251 [13]) was 98% and the growth at 0.1 µM [14] was 80%. For the same compound, the growth at 100 µM (NCI-H23 [15]) was -85%, the growth at 10 µM (MDA-MB-231) was -59% and the growth at 10 µM (U-251 [16]) was -57%. For the same compound, the growth at 0.1 µM [17] was 91%, the growth at 0.01 µM [18] was 95% and the growth at 1 µM [19] was 102%. It also gave a growth at 100 µM (A498) of -91%, a GI50 ([20]; read-out: GI50) of 4.67 µM and a CC50 [20, 28] of 60.5 µM. The TGI ([20]; read-out: TGI) was 19.5 µM, the GI50 ([20]; read-out: pGI50 (converted)) was 4.68 µM and the CC50 [20, 29] was 60.3 µM. It also gave a TGI ([20]; read-out: pTGI (converted)) of 19.5 µM, a growth at 0.01 µM (NCI-H522) of 86% and a growth at 0.01 µM [21] of 103%. The growth at 0.01 µM (T47D) was 91%, the growth at 0.01 µM [22] was 106% and the growth at 0.01 µM [23] was 88%. It also gave a growth at 0.1 µM [24] of 90%, a growth at 1 µM (NCI-H226) of 84% and a growth at 0.01 µM [25] of 93%. The growth at 0.01 µM (MDA-MB-435) was 96%, the growth at 10 µM (SN12C) was 44% and the growth at 1 µM (SK-MEL-2) was 94%. For the same compound, the growth at 10 µM [26] was 39% and the growth at 0.1 µM [27] was 99%.
